Measurements from the kinase profiling compilation of Christmann-Franck et al. (2016).

Columns and labels:
Test in all cases: KINOMEscan competition binding
Conditions in all cases: compound 10.0 µM
[1] = molecular target: BLK (human) (UniProt P51451)
[2] = molecular target: BRSK2 (human) (UniProt Q8IWQ3)
[3] = molecular target: CAMK1D (human) (UniProt Q8IU85)
[4] = molecular target: CAMK2D (human) (UniProt Q13557)
[5] = molecular target: CDC2L2 (human) (UniProt Q9UQ88)
[6] = molecular target: CDK15 (human) (UniProt Q96Q40)
[7] = molecular target: CDK9 (human) (UniProt P50750)
[8] = molecular target: CDKL3 (human) (UniProt Q8IVW4)
[9] = molecular target: CHEK1 (human) (UniProt O14757)
[10] = molecular target: CLK1 (human) (UniProt P49759)
[11] = molecular target: CLK4 (human) (UniProt Q9HAZ1)
[12] = molecular target: CSNK1G2 (human) (UniProt P78368)
[13] = molecular target: DDR1 (human) (UniProt Q08345)
[14] = molecular target: FGFR2 (human) (UniProt P21802)
[15] = molecular target: GRK1 (human) (UniProt Q15835)
[16] = molecular target: HIPK1 (human) (UniProt Q86Z02)
[17] = molecular target: HUNK (human) (UniProt P57058)
[18] = molecular target: KDR (human) (UniProt P35968)
[19] = molecular target: MAP3K13 (human) (UniProt O43283)
[20] = molecular target: MAP3K6 (human) (UniProt O95382)
[21] = molecular target: MAP3K9 (human) (UniProt P80192)
[22] = molecular target: MAP4K2 (human) (UniProt Q12851)
[23] = molecular target: MAP4K4 (human) (UniProt O95819)
[24] = molecular target: MAPK13 (human) (UniProt O15264)
[25] = molecular target: MELK (human) (UniProt Q14680)
[26] = molecular target: MYLK (human) (UniProt Q15746)
[27] = molecular target: PAK1 (human) (UniProt Q13153)
[28] = molecular target: PKN1 (human) (UniProt Q16512)
[29] = molecular target: PRKCD (human) (UniProt Q05655)
[30] = molecular target: PRKCQ (human) (UniProt Q04759)
[31] = molecular target: PTK6 (human) (UniProt Q13882)
[32] = molecular target: RPS6KA1 KD2 (human) (UniProt Q15418)
[33] = molecular target: STK24 (human) (UniProt Q9Y6E0)
[34] = molecular target: STK32A (human) (UniProt Q8WU08)
[35] = molecular target: STK32B (human) (UniProt Q9NY57)
[36] = molecular target: STK38 (human) (UniProt Q15208)
[37] = molecular target: STK39 (human) (UniProt Q9UEW8)
[38] = molecular target: STK4 (human) (UniProt Q13043)
[39] = molecular target: TAOK2 (human) (UniProt Q9UL54)
[40] = molecular target: ULK3 (human) (UniProt Q6PHR2)

Sequence of MYLK (human) (Q15746 whole entry, looked up): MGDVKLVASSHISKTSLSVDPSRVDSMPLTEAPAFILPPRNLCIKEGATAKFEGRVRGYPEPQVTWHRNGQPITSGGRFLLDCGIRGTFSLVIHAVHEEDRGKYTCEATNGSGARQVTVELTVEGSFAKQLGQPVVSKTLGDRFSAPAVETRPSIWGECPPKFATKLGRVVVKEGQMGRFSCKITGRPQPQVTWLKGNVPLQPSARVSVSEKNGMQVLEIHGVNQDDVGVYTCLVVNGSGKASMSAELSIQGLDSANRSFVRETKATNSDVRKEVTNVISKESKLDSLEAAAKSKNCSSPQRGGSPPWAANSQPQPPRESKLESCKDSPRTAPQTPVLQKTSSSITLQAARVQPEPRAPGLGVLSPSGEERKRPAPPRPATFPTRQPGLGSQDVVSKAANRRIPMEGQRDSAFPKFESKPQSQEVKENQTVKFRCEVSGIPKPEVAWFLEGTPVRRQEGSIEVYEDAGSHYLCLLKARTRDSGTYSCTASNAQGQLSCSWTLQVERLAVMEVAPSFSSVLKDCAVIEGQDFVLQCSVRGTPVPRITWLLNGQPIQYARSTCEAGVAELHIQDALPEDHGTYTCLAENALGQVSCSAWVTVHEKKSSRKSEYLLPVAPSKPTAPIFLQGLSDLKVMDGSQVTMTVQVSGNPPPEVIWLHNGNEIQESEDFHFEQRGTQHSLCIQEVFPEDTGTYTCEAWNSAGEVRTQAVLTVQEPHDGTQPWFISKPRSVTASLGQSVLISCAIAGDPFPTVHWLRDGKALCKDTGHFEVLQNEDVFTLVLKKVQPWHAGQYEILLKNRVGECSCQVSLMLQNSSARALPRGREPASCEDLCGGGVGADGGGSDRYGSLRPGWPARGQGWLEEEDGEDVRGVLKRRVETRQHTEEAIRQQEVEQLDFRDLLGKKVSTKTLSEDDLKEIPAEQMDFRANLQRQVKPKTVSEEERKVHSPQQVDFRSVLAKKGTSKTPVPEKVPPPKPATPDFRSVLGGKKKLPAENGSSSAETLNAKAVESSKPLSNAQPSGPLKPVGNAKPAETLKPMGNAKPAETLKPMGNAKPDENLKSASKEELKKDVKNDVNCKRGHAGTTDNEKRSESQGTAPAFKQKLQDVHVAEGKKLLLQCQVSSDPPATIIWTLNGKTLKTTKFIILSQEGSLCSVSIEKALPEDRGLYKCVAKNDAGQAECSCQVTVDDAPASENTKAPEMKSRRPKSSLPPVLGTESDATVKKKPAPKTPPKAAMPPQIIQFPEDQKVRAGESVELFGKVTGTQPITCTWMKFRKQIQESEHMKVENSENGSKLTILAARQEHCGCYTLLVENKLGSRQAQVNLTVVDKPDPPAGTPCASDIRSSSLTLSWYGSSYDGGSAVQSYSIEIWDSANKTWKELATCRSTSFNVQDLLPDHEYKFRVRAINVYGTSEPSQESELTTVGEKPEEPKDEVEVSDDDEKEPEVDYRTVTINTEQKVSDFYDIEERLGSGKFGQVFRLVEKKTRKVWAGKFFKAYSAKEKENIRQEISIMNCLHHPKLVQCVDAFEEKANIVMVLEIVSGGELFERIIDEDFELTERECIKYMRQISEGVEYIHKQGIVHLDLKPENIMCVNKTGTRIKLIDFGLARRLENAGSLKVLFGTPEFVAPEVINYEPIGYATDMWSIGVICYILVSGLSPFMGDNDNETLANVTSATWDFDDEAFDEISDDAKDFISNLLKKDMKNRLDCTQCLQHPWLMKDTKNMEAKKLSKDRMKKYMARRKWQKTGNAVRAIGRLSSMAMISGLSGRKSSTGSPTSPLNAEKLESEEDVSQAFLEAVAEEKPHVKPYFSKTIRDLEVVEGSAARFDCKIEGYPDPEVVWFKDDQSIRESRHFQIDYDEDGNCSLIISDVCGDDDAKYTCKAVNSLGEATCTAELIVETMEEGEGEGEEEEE
Sequence of CAMK1D (human) (Q8IU85 whole entry, looked up): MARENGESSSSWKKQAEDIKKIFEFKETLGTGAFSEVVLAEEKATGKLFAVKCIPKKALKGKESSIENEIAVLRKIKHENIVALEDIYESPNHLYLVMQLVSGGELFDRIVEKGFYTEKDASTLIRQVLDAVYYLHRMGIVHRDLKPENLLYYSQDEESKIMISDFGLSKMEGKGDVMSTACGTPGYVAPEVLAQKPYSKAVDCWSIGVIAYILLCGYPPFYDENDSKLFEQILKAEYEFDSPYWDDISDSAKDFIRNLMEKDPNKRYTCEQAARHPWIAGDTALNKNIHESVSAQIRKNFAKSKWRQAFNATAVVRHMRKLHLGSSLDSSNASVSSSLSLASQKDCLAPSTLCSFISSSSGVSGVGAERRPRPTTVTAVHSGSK
Sequence of CSNK1G2 (human) (P78368 whole entry, looked up): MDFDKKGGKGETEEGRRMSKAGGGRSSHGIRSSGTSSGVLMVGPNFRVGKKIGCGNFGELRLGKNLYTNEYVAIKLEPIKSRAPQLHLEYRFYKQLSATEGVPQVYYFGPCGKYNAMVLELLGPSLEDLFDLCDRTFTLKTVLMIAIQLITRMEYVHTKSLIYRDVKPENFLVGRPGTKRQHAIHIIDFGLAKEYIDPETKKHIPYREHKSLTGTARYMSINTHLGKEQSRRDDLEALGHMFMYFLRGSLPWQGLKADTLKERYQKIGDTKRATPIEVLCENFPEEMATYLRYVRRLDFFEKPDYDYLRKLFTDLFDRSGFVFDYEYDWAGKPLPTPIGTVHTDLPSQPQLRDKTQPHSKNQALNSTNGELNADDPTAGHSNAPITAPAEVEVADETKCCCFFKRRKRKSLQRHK
Sequence of CLK4 (human) (Q9HAZ1 whole entry, looked up): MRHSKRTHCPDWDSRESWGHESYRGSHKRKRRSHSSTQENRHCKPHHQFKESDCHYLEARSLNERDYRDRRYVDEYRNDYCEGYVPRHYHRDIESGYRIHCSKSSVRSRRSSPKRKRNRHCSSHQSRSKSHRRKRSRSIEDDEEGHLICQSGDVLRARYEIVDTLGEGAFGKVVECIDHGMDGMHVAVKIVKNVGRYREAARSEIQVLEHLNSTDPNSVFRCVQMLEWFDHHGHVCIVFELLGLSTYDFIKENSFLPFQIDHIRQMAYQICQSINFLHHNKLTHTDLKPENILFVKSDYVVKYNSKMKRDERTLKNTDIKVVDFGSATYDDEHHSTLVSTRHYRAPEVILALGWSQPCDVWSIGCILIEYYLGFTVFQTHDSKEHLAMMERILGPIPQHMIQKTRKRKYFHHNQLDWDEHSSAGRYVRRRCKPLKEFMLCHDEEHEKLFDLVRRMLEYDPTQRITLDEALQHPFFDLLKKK
Sequence of KDR (human) (P35968 whole entry, looked up): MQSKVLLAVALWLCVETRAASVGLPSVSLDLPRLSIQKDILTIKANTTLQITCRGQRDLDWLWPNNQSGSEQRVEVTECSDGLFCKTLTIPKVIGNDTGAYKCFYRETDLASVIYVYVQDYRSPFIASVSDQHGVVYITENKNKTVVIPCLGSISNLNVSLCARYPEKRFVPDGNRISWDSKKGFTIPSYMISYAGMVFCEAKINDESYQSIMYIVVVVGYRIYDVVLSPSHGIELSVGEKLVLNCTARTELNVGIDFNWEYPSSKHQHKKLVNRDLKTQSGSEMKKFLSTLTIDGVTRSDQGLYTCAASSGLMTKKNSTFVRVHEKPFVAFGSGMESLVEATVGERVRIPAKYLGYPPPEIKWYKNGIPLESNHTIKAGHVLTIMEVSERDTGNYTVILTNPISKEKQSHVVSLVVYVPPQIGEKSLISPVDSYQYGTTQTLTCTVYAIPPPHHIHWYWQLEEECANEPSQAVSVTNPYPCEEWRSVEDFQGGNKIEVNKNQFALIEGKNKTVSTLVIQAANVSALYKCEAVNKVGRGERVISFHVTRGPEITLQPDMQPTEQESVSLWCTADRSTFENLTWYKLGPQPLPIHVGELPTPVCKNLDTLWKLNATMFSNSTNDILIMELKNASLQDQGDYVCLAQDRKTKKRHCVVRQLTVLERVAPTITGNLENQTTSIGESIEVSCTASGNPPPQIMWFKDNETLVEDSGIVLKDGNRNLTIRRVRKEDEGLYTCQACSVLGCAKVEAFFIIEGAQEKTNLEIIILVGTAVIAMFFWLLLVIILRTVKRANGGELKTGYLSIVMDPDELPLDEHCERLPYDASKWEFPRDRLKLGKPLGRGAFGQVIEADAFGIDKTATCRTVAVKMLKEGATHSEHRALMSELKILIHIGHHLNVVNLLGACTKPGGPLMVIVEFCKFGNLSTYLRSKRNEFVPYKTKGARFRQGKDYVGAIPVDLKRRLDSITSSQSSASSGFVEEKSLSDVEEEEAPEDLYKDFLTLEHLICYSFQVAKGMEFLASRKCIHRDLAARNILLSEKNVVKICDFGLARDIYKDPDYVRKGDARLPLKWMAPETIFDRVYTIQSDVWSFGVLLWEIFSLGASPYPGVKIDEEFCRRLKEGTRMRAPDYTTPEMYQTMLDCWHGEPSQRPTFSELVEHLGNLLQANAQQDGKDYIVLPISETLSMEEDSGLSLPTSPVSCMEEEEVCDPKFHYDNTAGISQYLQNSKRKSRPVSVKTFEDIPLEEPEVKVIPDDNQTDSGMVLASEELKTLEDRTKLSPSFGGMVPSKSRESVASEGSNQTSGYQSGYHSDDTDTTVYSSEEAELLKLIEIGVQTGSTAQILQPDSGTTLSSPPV
Sequence of MAPK13 (human) (O15264 whole entry, looked up): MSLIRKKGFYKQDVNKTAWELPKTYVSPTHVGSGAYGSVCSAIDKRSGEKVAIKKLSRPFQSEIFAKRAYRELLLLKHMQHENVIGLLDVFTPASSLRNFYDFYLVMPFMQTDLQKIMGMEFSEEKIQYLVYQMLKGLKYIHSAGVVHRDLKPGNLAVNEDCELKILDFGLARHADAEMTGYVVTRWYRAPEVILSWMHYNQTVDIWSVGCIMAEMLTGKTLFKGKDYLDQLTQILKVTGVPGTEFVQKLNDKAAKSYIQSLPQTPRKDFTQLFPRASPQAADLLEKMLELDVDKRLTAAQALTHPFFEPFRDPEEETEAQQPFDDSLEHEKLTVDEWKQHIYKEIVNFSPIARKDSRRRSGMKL

## O=C(Nc1cccc(Nc2ncc(Br)c(NCCc3cnc[nH]3)n2)c1)N1CCCC1
[1]
  kinase still bound, per cent of control: 0.6%
[2]
  kinase still bound, per cent of control: 5.8%
[3]
  kinase still bound, per cent of control: 4.6%
[4]
  kinase still bound, per cent of control: 46%
[5]
  kinase still bound, per cent of control: 52%
[6]
  kinase still bound, per cent of control: 25%
[7]
  kinase still bound, per cent of control: 66%
[8]
  kinase still bound, per cent of control: 75%
[9]
  kinase still bound, per cent of control: 0.4%
[10]
  kinase still bound, per cent of control: 13%
[11]
  kinase still bound, per cent of control: 28%
[12]
  kinase still bound, per cent of control: 76%
[13]
  kinase still bound, per cent of control: 100%
[14]
  kinase still bound, per cent of control: 4.6%
[15]
  kinase still bound, per cent of control: 47%
[16]
  kinase still bound, per cent of control: 1.2%
[17]
  kinase still bound, per cent of control: 73%
[18]
  kinase still bound, per cent of control: 1.8%
[19]
  kinase still bound, per cent of control: 9.9%
[20]
  kinase still bound, per cent of control: 49%
[21]
  kinase still bound, per cent of control: 0.45%
[22]
  kinase still bound, per cent of control: 0.15%
[23]
  kinase still bound, per cent of control: 2.4%
[24]
  kinase still bound, per cent of control: 11%
[25]
  kinase still bound, per cent of control: 2.2%
[26]
  kinase still bound, per cent of control: 34%
[27]
  kinase still bound, per cent of control: 36%
[28]
  kinase still bound, per cent of control: 0.3%
[29]
  kinase still bound, per cent of control: 12%
[30]
  kinase still bound, per cent of control: 3.6%
[31]
  kinase still bound, per cent of control: 45%
[32]
  kinase still bound, per cent of control: 13%
[33]
  kinase still bound, per cent of control: 2%
[34]
  kinase still bound, per cent of control: 51%
[35]
  kinase still bound, per cent of control: 100%
[36]
  kinase still bound, per cent of control: 35%
[37]
  kinase still bound, per cent of control: 63%
[38]
  kinase still bound, per cent of control: 12%
[39]
  kinase still bound, per cent of control: 5.3%
[40]
  kinase still bound, per cent of control: 0.1%

## COc1ccc(N(C(=O)Oc2c(C)cccc2C)c2ccnc(Nc3ccc(N4CCN(C)CC4)cc3)n2)c(OC)c1
[1]
  kinase still bound, per cent of control: 0.05%
[2]
  kinase still bound, per cent of control: 81%
[3]
  kinase still bound, per cent of control: 100%
[4]
  kinase still bound, per cent of control: 100%
[5]
  kinase still bound, per cent of control: 42%
[6]
  kinase still bound, per cent of control: 94%
[7]
  kinase still bound, per cent of control: 33%
[8]
  kinase still bound, per cent of control: 0.1%
[9]
  kinase still bound, per cent of control: 100%
[10]
  kinase still bound, per cent of control: 84%
[11]
  kinase still bound, per cent of control: 100%
[12]
  kinase still bound, per cent of control: 33%
[13]
  kinase still bound, per cent of control: 0.25%
[14]
  kinase still bound, per cent of control: 0.45%
[15]
  kinase still bound, per cent of control: 100%
[16]
  kinase still bound, per cent of control: 100%
[17]
  kinase still bound, per cent of control: 9%
[18]
  kinase still bound, per cent of control: 15%
[19]
  kinase still bound, per cent of control: 70%
[20]
  kinase still bound, per cent of control: 93%
[21]
  kinase still bound, per cent of control: 0.6%
[22]
  kinase still bound, per cent of control: 1.6%
[23]
  kinase still bound, per cent of control: 3.7%
[24]
  kinase still bound, per cent of control: 100%
[25]
  kinase still bound, per cent of control: 46%
[26]
  kinase still bound, per cent of control: 100%
[27]
  kinase still bound, per cent of control: 6.8%
[28]
  kinase still bound, per cent of control: 15%
[29]
  kinase still bound, per cent of control: 9.8%
[30]
  kinase still bound, per cent of control: 21%
[31]
  kinase still bound, per cent of control: 0%
[32]
  kinase still bound, per cent of control: 65%
[33]
  kinase still bound, per cent of control: 52%
[34]
  kinase still bound, per cent of control: 8.2%
[35]
  kinase still bound, per cent of control: 1.1%
[36]
  kinase still bound, per cent of control: 100%
[37]
  kinase still bound, per cent of control: 100%
[38]
  kinase still bound, per cent of control: 42%
[39]
  kinase still bound, per cent of control: 2.4%
[40]
  kinase still bound, per cent of control: 59%
